Assay results published in paper PMC7254386, “Antibacterial PEGylated Solid Lipid Microparticles for Cosmeceutical Purpose: Formulation, Characterization, and Efficacy Evaluation” (Materials, 2020).

Key:
[1] = test system: S. aureus; settings: LB-agar as growth medium; cited from earlier work
[2] = RSV dissolution in different liquid lipophilic excipients; type: physicochemical
Excerpt: Lipophilic excipients must have peculiar features from a physicochemical perspective (i.e., solid at room temperature, chemically inert, high capacity to incorporate drugs, and capable of protecting the latter from physicochemical degradation phenomena) and a biological point of view (i.e., biocompatible, neither carcinogenic or teratogens nor allergenic, and poorly oxidizable) to use them for generating both pharmaceutical and cosmetic formulations. Here, 1-Hexadecanol (EXA) as non-toxic, biocompatible, biodegradable long-chain fatty alcohol was chosen as a solid lipid, as its surfactant characteristic allows this excipient to behave as an emulsifier agent, avoiding the need for further surfactant addition usually required for SLMs preparation using melt dispersion method. In addition, EXA was shown a certain effectiveness in the inhibition of S. aureus growth.

[3] = Preliminary RSV solubility tests in buffer solutions; type: physicochemical; settings: 32 °C, mean ± SE (n = 3)
Protocol: […] […] The suspension was kept in a thermostatic water bath (Heidolph MR3001K Hotplate Stirrer with Heidolph EXT3001 Temperature Probe, Heidolph Instruments, Schwabach, Germany) at 32 °C and stirred for 120 min. The samples were then centrifuged for 15 min at 15.000 rpm (mySPIN™ 12 Mini Centrifuge, Thermo Fisher Scientific, Waltham, MA, USA), to remove any precipitate. The supernatant was collected, diluted in methanol, and quantified by a UV-Vis spectrophotometer. The experiments were performed in triplicate.

[4] = parameters: method as in PMID 28659908; settings: cited from earlier work

In the case of `Oc1ccc(/C=C/c2cc(O)cc(O)c2)cc1` [RSV, 3,4′, 5-trihydroxy-trans-stilbene], the “Minimal Inhibitory Concentration (MIC)” value [1] is listed as 1000 µg/mL, the “RSV dissolution (appearance)” value ([2]; Gelucire 62/05, RSV 5% w/w) is listed as “Opalescent” and the “RSV dissolution (appearance)” value ([2]; Gelucire 62/05, RSV 10% w/w) is listed as “Opalescent”. The “RSV dissolution (appearance)” value ([2]; Gelucire 62/05, RSV 15% w/w) was “Opalescent”, the “RSV dissolution (appearance)” value ([2]; Glyceryl Monostearate, RSV 5% w/w) was “Opalescent” and the “RSV dissolution (appearance)” value ([2]; Glyceryl Monostearate, RSV 10% w/w) was “Opalescent”. For the same compound, the “RSV dissolution (appearance)” value ([2]; Glyceryl Monostearate, RSV 15% w/w) was “Opalescent”, the “RSV dissolution (appearance)” value ([2]; Isostearyl Isostearate, RSV 5% w/w) was “Opalescent” and the “RSV dissolution (appearance)” value ([2]; Isostearyl Isostearate, RSV 10% w/w) was “Opalescent”. For the same compound, the “RSV dissolution (appearance)” value ([2]; Isostearyl Isostearate, RSV 15% w/w) was “Opalescent”, the “RSV dissolution (appearance)” value ([2]; Labrafil M-1944, RSV 5% w/w) was “Opalescent” and the “RSV dissolution (appearance)” value ([2]; Labrafil M-1944, RSV 10% w/w) was “Opalescent”. The “RSV dissolution (appearance)” value ([2]; Labrafil M-1944, RSV 15% w/w) was “Opalescent”, the “RSV dissolution (appearance)” value ([2]; Labrafil M-2130, RSV 5% w/w) was “Opalescent” and the “RSV dissolution (appearance)” value ([2]; Labrafil M-2130, RSV 10% w/w) was “Opalescent”. The “RSV dissolution (appearance)” value ([2]; Labrafil M-2130, RSV 15% w/w) was “Opalescent”, the “RSV dissolution (appearance)” value ([2]; Labrasol, RSV 5% w/w) was “Clear” and the “RSV dissolution (appearance)” value ([2]; Labrasol, RSV 10% w/w) was “Clear”. The “RSV dissolution (appearance)” value ([2]; Labrasol, RSV 15% w/w) was “Slightly Opalescent”, the “RSV dissolution (appearance)” value ([2]; Soy Lecithin, RSV 5% w/w) was “Opalescent” and the “RSV dissolution (appearance)” value ([2]; Soy Lecithin, RSV 10% w/w) was “Opalescent”. The “RSV dissolution (appearance)” value ([2]; Soy Lecithin, RSV 15% w/w) was “Opalescent”, the “RSV dissolution (appearance)” value ([2]; Tefose 1500, RSV 10% w/w) was “Slightly Opalescent” and the “RSV dissolution (appearance)” value ([2]; Tefose 1500, RSV 15% w/w) was “Opalescent”. For the same compound, the “amount of RSV solubilized by Labrasol” value ([2]; liquid lipid Labrasol) was “up to 10 % w/w”, the solubility at 120 min ([3]; PBS buffer solution with BSA 5% w/v, pH 7.4, thermodynamic from solid, PBS + BSA 5%) was 442 ± 35 µg/mL and the solubility at 120 min ([3]; PBS buffer solution with DMSO 10% v/v, pH 7.4, aqueous with cosolvent or surfactant or cyclodextrin, thermodynamic from solid, PBS + DMSO 10%) was 194 ± 10 µg/mL. The solubility at 120 min ([3]; PBS buffer solution with α-CD 0.5% w/v, pH 7.4, aqueous with cosolvent or surfactant or cyclodextrin, thermodynamic from solid, PBS + α-CD 0.5%) was 153 ± 8 µg/mL, the solubility at 120 min ([3]; PBS buffer solution with β-CD 2% w/v, pH 7.4, aqueous with cosolvent or surfactant or cyclodextrin, thermodynamic from solid, PBS + β-CD 2%) was 886 ± 11 µg/mL and the solubility at 120 min ([3]; citrate buffer solution with β-CD 2% w/v, aqueous with cosolvent or surfactant or cyclodextrin, thermodynamic from solid, Citrate buffer (pH 6.2) + β-CD 2%) was 803 ± 3 µg/mL. For the same compound, the “partition coefficient (LogP)” value [4] was 3.09.
